# Experimental data published in patent US8952024B2, “Herbicidal pyrimidone derivatives” (E I du Pont de Nemours and Company, priority 2009, dated 2015).
# Legend:
# Experiment in all cases: Test B pre-/postemergence plant response
# Format in all cases: in vivo
# [1] = system: Italian ryegrass (Lolium multiflorum)
# Method in brief: (§1)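 Ratings reflect visual comparison with untreated controls 13 to 15 days after application, from 0 (no effect) to 100 (complete control). Application was preemergence to seeded loam/sand soil or postemergence to 1- to 4-leaf plants, with compound in a non-phytotoxic, surfactant-containing solvent.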
# corn (Zea mays) = system: corn (Zea mays)
# Method in brief: as §1
# [2] = system: giant foxtail (Setaria faberii)
# Method in brief: as §1
# [3] = system: green foxtail (Setaria viridis)
# Method in brief: as §1
# [4] = system: large crabgrass (Digitaria sanguinalis)
# Method in brief: as §1
# kochia (Kochia scoparia) = settings: Postemergence; for Plant response rating, Kochia: scale 0 (no effect) to 100 (complete control); for Kochia plant response rating: 250 g ai/ha, scale 0 to 100
# Method in brief: as §1
# [5] = system: ragweed (common ragweed, Ambrosia elatior)
# Method in brief: as §1
# [6] = system: johnsongrass (Sorghum halepense)
# Method in brief: as §1
# [7] = system: velvetleaf (Abutilon theophrasti)
# Method in brief: as §1
# soybean (Glycine max) = system: soybean (Glycine max)
# Method in brief: as §1
# [8] = system: cocklebur (Xanthium strumarium); settings: Preemergence
# Method in brief: as §1
# [9] = system: goosegrass (Eleusine indica)
# Method in brief: as §1
# [10] = system: blackgrass (Alopecurus myosuroides)
# Method in brief: as §1
# [11] = system: morningglory (Ipomoea coccinea)
# Method in brief: as §1
# [12] = 250 g ai/ha, Preemergence, 0 to 100 scale
# [13] = Postemergence, 62 g ai/ha, scale 0 (no effect) to 100 (complete control), 13 to 15 days
# [14] = Postemergence, 125 g ai/ha, visual rating after 13 to 15 days, scale 0 (no effect) to 100 (complete control)
# [15] = Preemergence, 31 g ai/ha, scale 0 to 100 (0 no effect, 100 complete control)
# [16] = Preemergence, 125 g ai/ha, 0 to 100 scale
# [17] = Postemergence, 31 g ai/ha, scale 0 to 100 (0 no effect, 100 complete control)
# [18] = Postemergence, 250 g ai/ha, scale 0 to 100
# [19] = Preemergence, 62 g ai/ha, scale 0 to 100 (0 no effect, 100 complete control)
# [20] = 125 g ai/ha, visual rating after 13 to 15 days
smiles,measurement,setting,value
Cc1ccccc1-n1c(-c2cccc(Cl)c2)ncc(C(=O)C2=C(O)CCCC2=O)c1=O [Compound 36],"Plant response rating, Ryegrass, Italian",[1]; [12],0
same,"Plant response rating, Ryegrass, Italian",[1]; [13],5
same,"Plant response rating, Ryegrass, Italian",[1]; [14],10
same,"Plant response rating, Ryegrass, Italian",[1]; [15],0
same,"Ryegrass, Italian plant response rating",[1]; [16],0
same,"Plant response rating, Corn",corn (Zea mays); [12],0
same,"Plant response rating, Corn",corn (Zea mays); [17],50
same,"Plant response rating, Corn",corn (Zea mays); [13],55
same,"Plant response rating, Corn",corn (Zea mays); [14],65
same,Corn plant response rating,corn (Zea mays); [18],85
same,"Plant response rating, Corn",corn (Zea mays); [15],0
same,"Plant response rating, Corn",corn (Zea mays); [19],0
same,Corn plant response rating,corn (Zea mays); [16],0
same,"Plant response rating, Foxtail, Giant",[2]; [12],80
same,"Plant response rating, Foxtail, Giant",[2]; [17],95
same,"Plant response rating, Foxtail, Giant",[2]; [13],95
same,"Plant response rating, Foxtail, Giant",[2]; [14],98
same,"Foxtail, Giant plant response rating",[2]; [18],98
same,"Plant response rating, Foxtail, Giant",[2]; [15],10
same,"Plant response rating, Foxtail, Giant",[2]; [19],20
same,"Foxtail, Giant plant response rating",[2]; [16],65
same,"Plant response rating, Foxtail, Green",[3]; [12],85
same,"Plant response rating, Foxtail, Green",[3]; [17],85
same,"Plant response rating, Foxtail, Green",[3]; [13],90
same,"Plant response rating, Foxtail, Green",[3]; [14],90
same,"Foxtail, Green plant response rating",[3]; [18],90
same,"Plant response rating, Foxtail, Green",[3]; [15],35
same,"Plant response rating, Foxtail, Green",[3]; [19],80
same,"Foxtail, Green plant response rating",[3]; [16],85
same,"Plant response rating, Crabgrass, Large",[4]; [12],100
same,"Plant response rating, Crabgrass, Large",[4]; [17],90
same,"Plant response rating, Crabgrass, Large",[4]; [13],95
same,"Plant response rating, Crabgrass, Large",[4]; [14],95
same,"Crabgrass, Large plant response rating",[4]; [18],98
same,"Plant response rating, Crabgrass, Large",[4]; [15],20
same,"Plant response rating, Crabgrass, Large",[4]; [19],90
same,"Crabgrass, Large plant response rating",[4]; [16],100
same,"Plant response rating, Kochia","kochia (Kochia scoparia); 62 g ai/ha, 13 to 15 days",0
same,"Plant response rating, Kochia",kochia (Kochia scoparia); [20],60
same,Kochia plant response rating,kochia (Kochia scoparia),65
same,"Plant response rating, Ragweed",[5]; [12],90
same,"Plant response rating, Ragweed",[5]; [13],90
same,"Plant response rating, Ragweed",[5]; [14],95
same,"Plant response rating, Ragweed",[5]; [15],35
same,Ragweed plant response rating,[5]; [16],85
same,"Plant response rating, Johnsongrass",[6]; [12],85
same,"Plant response rating, Johnsongrass",[6]; [13],75
same,"Plant response rating, Johnsongrass",[6]; [14],85
same,Johnsongrass plant response rating,[6]; [18],100
same,"Plant response rating, Johnsongrass",[6]; [15],0
same,"Plant response rating, Johnsongrass",[6]; [19],65
same,Johnsongrass plant response rating,[6]; [16],80
same,"Plant response rating, Velvetleaf",[7]; [12],100
same,"Plant response rating, Velvetleaf",[7]; [13],100
same,"Plant response rating, Velvetleaf",[7]; [14],100
same,"Plant response rating, Velvetleaf",[7]; [15],65
same,Velvetleaf plant response rating,[7]; [16],100
same,"Plant response rating, Soybean",soybean (Glycine max); [12],40
same,"Plant response rating, Soybean",soybean (Glycine max); [13],98
same,"Plant response rating, Soybean",soybean (Glycine max); [14],100
same,"Plant response rating, Soybean",soybean (Glycine max); [15],0
same,Soybean plant response rating,soybean (Glycine max); [16],0
same,"Plant response rating, Cocklebur","[8]; 250 g ai/ha, 0 to 100 scale",80
same,"Plant response rating, Goosegrass",[9]; [12],100
same,"Plant response rating, Goosegrass",[9]; [13],85
same,"Plant response rating, Goosegrass",[9]; [14],90
same,Goosegrass plant response rating,[9]; [18],95
same,"Plant response rating, Goosegrass",[9]; [15],0
same,Goosegrass plant response rating,[9]; [16],95
same,"Plant response rating, Blackgrass",[10]; [12],25
same,"Plant response rating, Blackgrass",[10]; [17],5
same,"Plant response rating, Blackgrass",[10]; [13],5
same,"Plant response rating, Blackgrass",[10]; [14],15
same,Blackgrass plant response rating,[10]; [18],15
same,"Plant response rating, Blackgrass",[10]; [15],20
same,"Plant response rating, Blackgrass",[10]; [19],25
same,Blackgrass plant response rating,[10]; [16],25
same,"Plant response rating, Morningglory",[11]; [12],20
same,"Plant response rating, Morningglory",[11]; [13],70
same,"Plant response rating, Morningglory",[11]; [14],75
same,"Plant response rating, Morningglory",[11]; [15],0
same,"Plant response rating, Morningglory",[11]; [19],0
same,Morningglory plant response rating,[11]; [16],0
O=C1CCCC(O)=C1C(=O)c1cnc(-c2ccccc2)n(-c2cccc(Br)c2)c1=O [Compound 38],"Plant response rating, Ryegrass, Italian",[1]; [12],40
same,"Plant response rating, Ryegrass, Italian",[1]; [13],50
same,"Plant response rating, Ryegrass, Italian",[1]; [14],60
same,"Plant response rating, Ryegrass, Italian",[1]; [15],0
same,"Ryegrass, Italian plant response rating",[1]; [16],5
same,"Plant response rating, Corn",corn (Zea mays); [12],0
same,"Plant response rating, Corn",corn (Zea mays); [17],55
same,"Plant response rating, Corn",corn (Zea mays); [13],70
same,"Plant response rating, Corn",corn (Zea mays); [14],75
same,Corn plant response rating,corn (Zea mays); [18],90
same,"Plant response rating, Corn",corn (Zea mays); [15],0
same,"Plant response rating, Corn",corn (Zea mays); [19],0
same,Corn plant response rating,corn (Zea mays); [16],0
same,"Plant response rating, Foxtail, Giant",[2]; [12],95
same,"Plant response rating, Foxtail, Giant",[2]; [17],95
same,"Plant response rating, Foxtail, Giant",[2]; [13],98
same,"Plant response rating, Foxtail, Giant",[2]; [14],100
same,"Foxtail, Giant plant response rating",[2]; [18],100
same,"Plant response rating, Foxtail, Giant",[2]; [15],0
same,"Plant response rating, Foxtail, Giant",[2]; [19],40
same,"Foxtail, Giant plant response rating",[2]; [16],80
same,"Plant response rating, Foxtail, Green",[3]; [12],100
same,"Plant response rating, Foxtail, Green",[3]; [17],85
same,"Plant response rating, Foxtail, Green",[3]; [13],90
same,"Plant response rating, Foxtail, Green",[3]; [14],95
same,"Foxtail, Green plant response rating",[3]; [18],95
same,"Plant response rating, Foxtail, Green",[3]; [15],20
same,"Plant response rating, Foxtail, Green",[3]; [19],30
same,"Foxtail, Green plant response rating",[3]; [16],85
same,"Plant response rating, Crabgrass, Large",[4]; [12],100
same,"Plant response rating, Crabgrass, Large",[4]; [17],90
same,"Plant response rating, Crabgrass, Large",[4]; [13],90
same,"Plant response rating, Crabgrass, Large",[4]; [14],98
same,"Crabgrass, Large plant response rating",[4]; [18],100
same,"Plant response rating, Crabgrass, Large",[4]; [15],60
same,"Plant response rating, Crabgrass, Large",[4]; [19],90
same,"Crabgrass, Large plant response rating",[4]; [16],100
same,"Plant response rating, Kochia","kochia (Kochia scoparia); 62 g ai/ha, 13 to 15 days",80
same,"Plant response rating, Kochia",kochia (Kochia scoparia); [20],100
same,Kochia plant response rating,kochia (Kochia scoparia),100
same,"Plant response rating, Ragweed",[5]; [12],95
same,"Plant response rating, Ragweed",[5]; [13],80
same,"Plant response rating, Ragweed",[5]; [14],80
same,"Plant response rating, Ragweed",[5]; [15],40
same,Ragweed plant response rating,[5]; [16],80
same,"Plant response rating, Johnsongrass",[6]; [12],95
same,"Plant response rating, Johnsongrass",[6]; [13],75
same,"Plant response rating, Johnsongrass",[6]; [14],95
same,Johnsongrass plant response rating,[6]; [18],100
same,"Plant response rating, Johnsongrass",[6]; [15],10
same,"Plant response rating, Johnsongrass",[6]; [19],80
same,Johnsongrass plant response rating,[6]; [16],85
same,"Plant response rating, Velvetleaf",[7]; [12],100
same,"Plant response rating, Velvetleaf",[7]; [13],100
same,"Plant response rating, Velvetleaf",[7]; [14],100
same,"Plant response rating, Velvetleaf",[7]; [15],55
same,Velvetleaf plant response rating,[7]; [16],98
same,"Plant response rating, Soybean",soybean (Glycine max); [12],75
same,"Plant response rating, Soybean",soybean (Glycine max); [13],85
same,"Plant response rating, Soybean",soybean (Glycine max); [14],90
same,"Plant response rating, Soybean",soybean (Glycine max); [15],0
same,Soybean plant response rating,soybean (Glycine max); [16],0
same,"Plant response rating, Cocklebur","[8]; 250 g ai/ha, 0 to 100 scale",90
same,"Plant response rating, Cocklebur","[8]; 31 g ai/ha, scale 0 to 100 (0 no effect, 100 complete control)",0
same,"Plant response rating, Cocklebur","[8]; 62 g ai/ha, scale 0 to 100 (0 no effect, 100 complete control)",10
same,Cocklebur plant response rating,"[8]; 125 g ai/ha, 0 to 100 scale",25
same,"Plant response rating, Goosegrass",[9]; [12],100
same,"Plant response rating, Goosegrass",[9]; [13],85
same,"Plant response rating, Goosegrass",[9]; [14],90
same,Goosegrass plant response rating,[9]; [18],95
same,"Plant response rating, Goosegrass",[9]; [15],95
same,Goosegrass plant response rating,[9]; [16],100
same,"Plant response rating, Blackgrass",[10]; [12],40
same,"Plant response rating, Blackgrass",[10]; [17],5
same,"Plant response rating, Blackgrass",[10]; [13],15
same,"Plant response rating, Blackgrass",[10]; [14],15
same,Blackgrass plant response rating,[10]; [18],40
same,"Plant response rating, Blackgrass",[10]; [15],0
same,"Plant response rating, Blackgrass",[10]; [19],5
same,Blackgrass plant response rating,[10]; [16],30
same,"Plant response rating, Morningglory",[11]; [12],100
same,"Plant response rating, Morningglory",[11]; [13],70
same,"Plant response rating, Morningglory",[11]; [14],75
same,"Plant response rating, Morningglory",[11]; [15],0
same,"Plant response rating, Morningglory",[11]; [19],0
same,Morningglory plant response rating,[11]; [16],0
